Structures can show the parent of a compound that is named as a salt.

The record followed here is US6177425A, “Pyrrolopyrrolone derivatives” (Glaxo Wellcome Inc., priority 1997, dated 2001).

For this assay, the target named is T1, human neutrophil elastase (Homo sapiens, UniProt P08246).
T1 sequence (P08246 30-247 limits assumed): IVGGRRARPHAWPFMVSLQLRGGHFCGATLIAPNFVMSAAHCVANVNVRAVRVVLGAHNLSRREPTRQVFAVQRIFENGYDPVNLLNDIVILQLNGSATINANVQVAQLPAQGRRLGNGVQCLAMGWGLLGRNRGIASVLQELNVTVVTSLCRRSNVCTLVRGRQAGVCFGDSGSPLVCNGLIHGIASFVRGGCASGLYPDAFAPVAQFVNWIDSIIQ
Nature of the assay: In vitro Assays of Human Neutrophil Elastase. Format: biochemical. The settings on record: purified human neutrophil elastase 11.8 nM, pH 8.6, 15 min incubation at 30° C., 0.6 mM MeO-succinyl-alanyl-alanyl-prolyl-valyl-p-nitroanilide, 405 nm. The method, then: In vitro Assays of Human Neutrophil Elastase Assay contents: 50 mM Tris/HCl (pH 8.6) 150 mM NaCl 11.8 nM purified human neutrophil elastase Suitable concentrations of compound under test diluted with water from a 10 mM stock solution in dimethylsulphoxide. Values above are final concentrations after the addition of substrate solution (see below). The mixture above is incubated for fifteen minutes at 30° C. at which time the remaining elastase activity is measured for 10 minutes in a BioTek 340i plate-reader, after the addition of 0.6 mM MeO-succinyl-alanyl-alanyl-prolyl-valyl-p-nitroanilide. The rate of increase in absorbance at 405 nm is proportional to elastase activity. Enzyme activity is plotted against concentration of inhibitor and an IC50 determined using curve fitting software. 1. The compounds of Examples 1 to 7 were tested in the in vitro elastase test described earlier in the description.

By IC50 is commonly meant the concentration at which inhibition is half-maximal. Read a low IC50 as greater potency. As to `CCC[C@H]1C(=O)N(S(C)(=O)=O)[C@H]2CN(C(=O)C=CCN3CCCCC3)C[C@H]12` (relative stereo) [Example 1, rel-(3R,3aS,6aR)-1-Methanesulfonyl-5-(4-piperidin-1-yl-but-2-enoyl)-3-propyl-hexahydro-pyrrolo[3,4-b]pyrrol-2-one hydrochloride], the IC50 was 0.227 µM.
`CCC[C@H]1C(=O)N(S(C)(=O)=O)[C@H]2CN(C(=O)CCCN3CCCCC3)C[C@H]12` (relative stereo) [Example 2, rel-(3R,3aS,6aR)-1-Methanesulfonyl-5-(4-piperidin-1-yl-butyryl)-3-propyl-hexahydro-pyrrolo[3,4-b]pyrrol-2-one] came in with a 50% inhibitory concentration (IC50) of 0.9 µM.
`CCC[C@H]1C(=O)N(S(C)(=O)=O)[C@H]2CN(S(=O)(=O)c3ccc(NC(C)=O)cc3)C[C@H]12` (relative stereo) [Example 3, rel-N-[4-(1-Methanesulfonyl-2-oxo-3R-propylhexahydro-(3aS,6aR)-pyrrolo[3,4-b]pyrrole-5-sulfonyl)-phenyl]acetamide] displayed a half-inhibitory concentration (IC50) of 0.229 µM.
For the compound `CCC[C@H]1C(=O)N(S(C)(=O)=O)[C@H]2CN(C(=O)c3ccc(CN4CCCCC4)cc3)C[C@H]12` (relative stereo) [Example 4, rel-(3R,3aS,6aR)-1-Methanesulfonyl-5-(4-piperidin-1-ylmethyl-benzoyl)-3-propyl-hexahydro-pyrrolo[3,4-b]pyrrol-2-one hydrochloride], the IC50 was found to be 0.296 µM.
The figure for `CCC[C@H]1C(=O)N(S(C)(=O)=O)[C@H]2CN(C(=O)c3ccc(CN4CCOCC4)cc3)C[C@H]12` (relative stereo) [Example 5, rel-(3R,3aS,6aR)-1-Methanesulfonyl-5-(4-morpholin-4-ylmethyl-benzoyl)-3-propyl-hexahydro-pyrrolo[3,4-b]pyrrol-2-one hydrochloride] is 0.222 µM; for `CCC[C@H]1C(=O)N(S(C)(=O)=O)[C@H]2CN(C(=O)c3cc(CN4CCOCC4)on3)C[C@H]12` (relative stereo) [Example 6, rel-(3R,3aS,6aR)-1-Methanesulfonyl-5-(5-morpholin-4-ylmethyl-isoxazole-3-carbonyl)-3-propyl-hexahydro-pyrrolo[3,4-b]pyrrol-2-one hydrochloride] it is 0.146 µM.
The compound `CCC[C@H]1C(=O)N(S(C)(=O)=O)[C@H]2CN(C(=O)c3cc(CN(C)C)on3)C[C@H]12` (relative stereo) [Example 7, rel-(3R,3aS,6aR)-5-(5-Dimethylaminomethyl-isoxazole-3-carbonyl)-1-methanesulfonyl-3-propyl-hexahydro-pyrrolo[3,4-b]pyrrol-2-one hydrochloride] had an IC50 of 0.399 µM.
